Measured values as given in patent publication US12275729B2 (Merck Sharp & Dohme LLC, priority 2017, dated 2025).

Assays:
[1] = biological target: T1, IDO1 (Homo sapiens, UniProt P14902); experiment: IDO1 Human Whole Blood Assay; assay type: cell-based; design: Human whole blood was drawn in sodium heparin coated tubes from healthy internal donors; from tissue; host or cells: human whole blood from healthy donors, stimulated with LPS and IFNγ; conditions: LPS and IFNγ stimulated
Description: IDO1 Human Whole Blood Assay
Compounds to be tested were serially diluted in ten 3-fold steps in DMSO starting from 10 mM. […] LPS and IFNγ was prepared in RPMI to a 10× of final conc. (1000 ng/mL), final concentration is 100 ng/mL.
Human whole blood was drawn in sodium heparin coated tubes from healthy internal donors. 240 μL of blood was transferred to each of the wells of a v-bottom 96 well plate. 30 μL of compound was transferred from intermediate dilution plate, and incubated for 15 min. 30 μL from stimulants was then transferred to blood and mixed thoroughly.
On day 2 isotope labeled standard of kynurenine and tryptophan was made in water at 1Ox concentration and 30 μL was added to the blood at […] final concentration. The assay plates were centrifuged at 300×G for 10 min with no brake to separate plasma from red blood cells. 60 μL of plasma samples was removed without disturbing red blood cells. Plasma was diluted with RPMI in 1:1 ratio and proteins were precipitated out with two volume of Acetonitrile. The plates were centrifuged at 4000×G for 60 min. 20 μL of supernatant was carefully transferred to a 384 well plate contain 40 μL of 0.1% formic acid in water and analyzed by LC/MS/MS.
LC/MS/MS analyses were performed using Thermo Fisher's LX4-TSQ Quantum Ultra system. This system consists of four Agilent binary high-performance liquid chromatography (HPLC) pumps and a TSQ Quantum Ultra triple quadrupole MS/MS instrument. For each sample, 5 μL were injected onto an Atlantis T3 column (2.1 mm×150 mm, […] particle size) from Waters. The mobile phase gradient pumped at 0.8 mL/min was used to elute the analytes from the column at 25° C. […] Mobile phase A consisted of 0.1% formic acid in water. Mobile phase B consisted of 0.1% of formic acid in acetonitrile. Data was acquired in positive mode using a HESI interface. The operational parameters for the TSQ Quantum Ultra instrument were a spray voltage of 4000 V, capillary temperature of 380° C., vaporizer temperature 400° C., shealth gas 60 arbitrary units, Aux gas 20 arbitrary units, tube lens 85 and collision gas 1.2 mTorr. […] The peak area was integrated by Xcalibur Quan software. The ratios between the kynurenine generated in the reaction and 2D6-Kynurenine spiked-in internal standard were used to generate percentage inhibition and IC50 values.

[2] = biological target: T1, IDO1; experiment: IDO1 Cellular Assay in HeLa Cells Stimulated with IFNγ; assay type: cell-based; conditions: read-out: Hela IC50

T1 sequence (P14902 whole entry): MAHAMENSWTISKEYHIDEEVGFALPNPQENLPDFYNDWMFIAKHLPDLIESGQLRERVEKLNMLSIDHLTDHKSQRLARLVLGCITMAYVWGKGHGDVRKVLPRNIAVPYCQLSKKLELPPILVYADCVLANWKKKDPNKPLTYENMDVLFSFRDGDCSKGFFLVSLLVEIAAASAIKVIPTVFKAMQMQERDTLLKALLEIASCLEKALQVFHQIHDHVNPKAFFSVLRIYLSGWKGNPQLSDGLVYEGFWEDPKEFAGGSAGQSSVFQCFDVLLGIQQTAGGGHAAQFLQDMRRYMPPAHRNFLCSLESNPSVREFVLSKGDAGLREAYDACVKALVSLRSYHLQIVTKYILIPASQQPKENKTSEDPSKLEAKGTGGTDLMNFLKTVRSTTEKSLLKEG

Compound | IC50 [1] | IC50 ([2]; about 48 hours) | IC50 [2] | IC50 ([2]; value in running text)
CC(C(=O)Nc1ccc(Cl)cc1)c1ccc2c(c1)CC(F)CN2C(=O)c1cccc(Cl)c1 (single isomer, unassigned) [Example 259, 2-(1-(3-chlorobenzoyl)-3-fluoro-1,2,3,4-tetrahydroquinolin-6-yl)-N-(4-chlorophenyl)propanamide] | 41 nM | 2.51 nM |  | 
CC(NC(=O)c1ccc(F)cc1)c1ccc2c(n1)CCCN2C(=O)OCCCc1ccncc1 (stereo not shown) [Example 322, 3-(pyridin-4-yl)propyl 6-(1-(4-fluorobenzamido)ethyl)-3,4-dihydro-1,5-naphthyridine-1(2H)-carboxylate] | 58 nM |  | 453 nM | 
O=C(C1CC1)N1CCCc2cc(C3(C(=O)Nc4ccc(F)cc4)CCC3)ccc21 [Example 97, 1-[1-(cyclopropanecarbonyl)-1,2,3,4-tetrahydroquinolin-6-yl]-N-(4-fluorophenyl)cyclobutane-1-carboxamide] | 11 nM | 1.7 nM |  | 
COC[C@@H](C)OC(=O)N1CCCc2nc(C(C)NC(=O)c3ccc(F)cc3)ccc21 (stereo partly drawn) [Example 315, (R)-1-methoxypropan-2-yl 6-(1-(4-fluorobenzamido)ethyl)-3,4-dihydro-1,5-naphthyridine-1(2H)-carboxylate] | 18 nM |  | 2.9 nM | 
COC(=O)N1CCCc2nc(C(C)NC(=O)c3ccc(Cl)cc3)ccc21 (stereo not shown) [Example 213, methyl 6-{1-[(4-chlorobenzene-1-carbonyl)amino]ethyl}-3,4-dihydro-1,5-naphthyridine-1(2H)-carboxylate] | 393 nM | 6.3 nM |  | 
COC[C@H](C)OC(=O)N1CCCc2nc(C(C)NC(=O)c3ccc(Cl)cc3)ccc21 (stereo partly drawn) [Example 330, (S)-1-methoxypropan-2-yl 6-(1-(4-chlorobenzamido)ethyl)-3,4-dihydro-1,5-naphthyridine-1(2H)-carboxylate] | 4950 nM |  | 1.1 nM | 
Cc1nccc(N2CCCc3nc(C4(NC(=O)c5ccc(F)c(Br)c5)CC4)ccc32)n1 [Example 304, 3-bromo-4-fluoro-N-(1-(5-(2-methylpyrimidin-4-yl)-5,6,7,8-tetrahydro-1,5-naphthyridin-2-yl)cyclopropyl)benzamide] | 81 nM | 2.79 nM |  | 
Cc1ncnc(N2CCCc3nc(C(C)NC(=O)c4ccc(Cl)cc4)ccc32)c1C (stereo not shown) [Example 347, 4-chloro-N-(1-(5-(5,6-dimethylpyrimidin-4-yl)-5,6,7,8-tetrahydro-1,5-naphthyridin-2-yl)ethyl)benzamide] | 340 nM |  | 156 nM | 
Cc1nccc(N2CCCc3nc(C4(NC(=O)c5ccc(F)cc5)CCC4)ccc32)n1 [Example 402, 4-fluoro-N-(1-(5-(2-methylpyrimidin-4-yl)-5,6,7,8-tetrahydro-1,5-naphthyridin-2-yl)cyclobutyl)benzamide] | 3 nM | 1.68 nM |  | 
CC(NC(=O)c1ccc(Cl)cc1)c1ccc2c(n1)CCCN2C(=O)c1cc(C(F)F)ccn1 (stereo not shown) [Example 289, 4-chloro-N-(1-(5-(4-(difluoromethyl)picolinoyl)-5,6,7,8-tetrahydro-1,5-naphthyridin-2-yl)ethyl)benzamide] | 17 nM | 2.7 nM |  | 
CC(C(=O)Nc1ccc(F)cc1)c1ccc2c(c1)CCCN2C(=O)c1cnn(C)c1 (stereo not shown) [Example 48, N-(4-fluorophenyl)-2-[1-(1-methyl-1H-pyrazole-4-carbonyl)-1,2,3,4-tetrahydroquinolin-6-yl]propanamide] | 321 nM | 15.8 nM |  | 
CC(NC(=O)c1ccc(Cl)cc1)c1ccc2c(n1)CCCN2c1cccc(C2CC2)n1 (stereo not shown) [Example 351, 4-chloro-N-(1-(5-(6-cyclopropylpyridin-2-yl)-5,6,7,8-tetrahydro-1,5-naphthyridin-2-yl)ethyl)benzamide] | 18 nM |  | 3.38 nM | 
Cc1nccc(N2CCCc3nc(C4(C(=O)Nc5ccc(F)cc5)CC(F)(F)C4)ccc32)n1 [Example 420, 3,3-difluoro-N-(4-fluorophenyl)-1-(5-(2-methylpyrimidin-4-yl)-5,6,7,8-tetrahydro-1,5-naphthyridin-2-yl)cyclobutanecarboxamide] | 12 nM |  | 1.09 nM | 1 nM
CC(NC(=O)c1ccc(F)cc1)c1ccc2c(n1)CCCN2C(=O)c1cc(Cl)ccn1 (stereo not shown) [Example 277, N-(1-(5-(4-chloropicolinoyl)-5,6,7,8-tetrahydro-1,5-naphthyridin-2-yl)ethyl)-4-fluorobenzamide] | 71 nM | 2.3 nM |  | 

The remaining molecules from weak to strong by IC50 [1], led by results:

IC50 [1] | IC50 ([2]; about 48 hours) | IC50 [2] | IC50 ([2]; value in running text) | Compound
1140 nM | 7.3 nM |  |  | CC(NC(=O)c1ccc(F)cc1)c1ccc2c(n1)CCCN2C(=O)c1c(Cl)cccc1Cl (stereo not shown) [Example 150, N-{1-[5-(2,6-dichlorobenzene-1-carbonyl)-5,6,7,8-tetrahydro-1,5-naphthyridin-2-yl]ethyl}-4-fluorobenzamide]
1000 nM |  | 71 nM |  | Cc1nccc(N2CCCc3nc(C4(C(=O)Nc5ccc(F)cc5)CC(O)C4)ccc32)n1 (stereo not shown) [Example 426, 2-(1-((4-fluorophenyl)carbamoyl)-3-hydroxycyclobutyl)-5-(2-methylpyrimidin-4-yl)-5,6,7,8-tetrahydro-1,5-naphthyridin-1-ium 2,2,2-trifluoroacetate]
984 nM |  | 0.69 nM |  | Cc1nccc(N2CCCc3nc(C(C)C(=O)Nc4ccc(Cl)cc4)ccc32)n1 (stereo not shown) [Example 362, N-(4-chlorophenyl)-2-(5-(2-methylpyrimidin-4-yl)-5,6,7,8-tetrahydro-1,5-naphthyridin-2-yl)propanamide]
557 nM | 5.4 nM |  |  | CCn1ccc(N2CCCc3cc(C4(C(=O)Nc5ccc(F)cn5)CCC4)ccc32)n1 [Example 232, 1-[1-(1-ethyl-H-pyrazol-3-yl)-1,2,3,4-tetrahydroquinolin-6-yl]-N-(5-fluoropyridin-2-yl)cyclobutane-1l-carboxamide]
436 nM |  | 27.9 nM |  | Cc1nc(N2CCCc3nc(C(C)NC(=O)c4ccc(Cl)cc4)ccc32)c2ccccc2n1 (stereo not shown) [Example 357, 2-(1-(4-chlorobenzamido)ethyl)-5-(2-methylquinazolin-4-yl)-5,6,7,8-tetrahydro-1,5-naphthyridin-1-ium 2,2,2-trifluoroacetate]
223 nM | 6.2 nM |  |  | O=C(C1CC1)N1CCCc2cc(C3(C(=O)Nc4ccc(F)cn4)CCC3)ccc21 [Example 96, 1-(1-(cyclopropanecarbonyl)-1,2,3,4-tetrahydroquinolin-6-yl)-N-(5-fluoropyridin-2-yl)cyclobutane-1-carboxamide]
150 nM | 4.1 nM |  |  | CC(C(=O)Nc1ccc(F)cc1)c1ccc2c(c1)CCCN2C(=O)C1CC1(F)F (stereo not shown) [Example 67, 2-[1-(2,2-difluorocyclopropane-1-carbonyl)-1,2,3,4-tetrahydroquinolin-6-yl]-N-(4-fluorophenyl)propanamide]
99 nM | 4.8 nM |  |  | C[C@H](C(=O)Nc1ccc(F)cc1)c1ccc2c(c1)CCCN2C(=O)C1CCOCC1 [Example 81, (2S)-N-(4-fluorophenyl)-2-[1-(oxane-4-carbonyl)-1,2,3,4-tetrahydroquinolin-6-yl]propanamide]
41 nM | 1.2 nM |  |  | O=C(OC1CC1)N1CCc2cc(C3(C(=O)Nc4ccc(F)cc4)CCC3)ccc21 [Example 270, cyclopropyl 5-{1-[(4-fluorophenyl)carbamoyl]cyclobutyl}-2,3-dihydro-1H-indole-1-carboxylate]
32 nM | 2 nM |  |  | Cc1nccc(N2CCCc3nc(C(C)NC(=O)c4ccc(Cl)cc4)ccc32)n1 (stereo not shown) [Example 250, 4-chloro-N-(1-(5-(2-methylpyrimidin-4-yl)-5,6,7,8-tetrahydro-1,5-naphthyridin-2-yl)ethyl)benzamide]
29 nM |  | 235 nM |  | O=C(N[C@@H](c1ccc2c(n1)CCCN2C(=O)C1CC1)C(F)(F)F)c1ccc(F)cc1 [Example 425, (S)—N-(1-(5-(cyclopropanecarbonyl)-5,6,7,8-tetrahydro-1,5-naphthyridin-2-yl)-2,2,2-trifluoroethyl)-4-fluorobenzamide]
19 nM | 2.4 nM |  |  | C[C@@H](C(=O)Nc1ccc(F)cn1)c1ccc2c(c1)CCCN2C(=O)c1cccc(Cl)c1 (single isomer, unassigned) [Example 55]
12 nM | 1.2 nM |  |  | O=C([C@H]1CCCCO1)N1CCCc2cc(C3(C(=O)Nc4ccc(F)cc4)CCC3)ccc21 (single isomer, unassigned) [Example 106]
